Target: T1, Tyrosine-protein phosphatase non-receptor type 11 (Homo sapiens, UniProt Q06124)
T1 sequence (Q06124 whole entry): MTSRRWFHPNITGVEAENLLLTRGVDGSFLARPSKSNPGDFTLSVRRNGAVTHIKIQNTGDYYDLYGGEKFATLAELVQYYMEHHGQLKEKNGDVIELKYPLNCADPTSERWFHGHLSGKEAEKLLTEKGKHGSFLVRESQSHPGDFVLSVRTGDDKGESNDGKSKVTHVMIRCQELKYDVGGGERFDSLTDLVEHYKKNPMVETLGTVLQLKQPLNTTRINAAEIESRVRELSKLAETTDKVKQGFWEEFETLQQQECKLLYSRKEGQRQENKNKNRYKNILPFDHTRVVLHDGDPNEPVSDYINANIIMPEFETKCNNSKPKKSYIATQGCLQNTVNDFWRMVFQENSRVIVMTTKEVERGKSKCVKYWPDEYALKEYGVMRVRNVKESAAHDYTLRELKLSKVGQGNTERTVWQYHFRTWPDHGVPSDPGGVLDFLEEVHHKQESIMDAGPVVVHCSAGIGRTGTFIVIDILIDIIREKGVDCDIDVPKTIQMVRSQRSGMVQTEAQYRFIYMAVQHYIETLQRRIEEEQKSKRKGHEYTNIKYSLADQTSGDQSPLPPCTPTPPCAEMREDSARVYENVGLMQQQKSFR
Assay: At the basal state, SHP2 is auto-inhibited and access of substrates to the catalytic site is blocked by the […] interactions between the SH2 domains and the PTP domain. When bis-tyrosyl-phosphorylated peptides bind to SH2 domain of SHP2, the PTP domain becomes available for substrate recognition and reaction catalysis and SHP2 is allosterically activated. SHP2 catalytic activity can be measured using a fluorogenic artificial substrate DiFMUP.The phosphatase reactions were carried out at room temperature in 384-well black polystyrene plates (Greiner Bio-One, Cat #784076) using assay buffers containing 60 mM HEPES, pH 7.2, 75 mM NaCl, 75 mM KCl, 1 mM EDTA, 0.05% P-20, and 5 mM DTT.0.33 nM of […] was co-incubated with of 0.5 μM of bisphos-IRS 1 peptide (sequence: H2N-LN(pY)IDLDLV(dPEG8)LST(pY)ASINFQK-amide) and various concentrations of compounds for 30-60 min at room temperature. Then the reaction was initiated by addition of the surrogate substrate DiFMUP (Invitrogen, Cat #D6567, 100 uM final).The real-time conversion of DiFMUP to DiFMU (6,8-difluoro-7-hydroxyl-4-methyl-coumarin) was measured every 5 min for 30 min using a microplate reader (CLARIOstar, BMG Labtech) with excitation and emission wavelengths of 340 nm and 450 nm, respectively. Initial reaction rates were determined by linear fitting of the data and the inhibitor dose response curves were analyzed using normalized IC50 regression curve fitting with control based normalization.

IC50 [nM] | SMILES
4.8 | C[C@@H]1OCC2(CCN(c3ncc(Sc4cc5[nH]c6c(c5nc4Cl)CCCC6O)nc3CO)CC2)[C@@H]1N (stereo partly specified)
0.9 | C[C@@H]1OCC2(CCN(c3ncc(Sc4ccnc(N)c4Cl)nc3CO)CC2)[C@@H]1N
85 | C[C@@H]1OCC2(CCN(c3ncc(Sc4cccnc4C(F)(F)F)nc3[S+](C)[O-])CC2)[C@@H]1N (stereo partly specified)
12 | C[C@@H]1OCC2(CCN(c3ncc(Sc4ccnc(N)c4Cl)nc3Cl)CC2)[C@@H]1N
0.6 | Nc1nccc(Sc2cnc(N3CCC4(CC3)Cc3ncccc3[C@H]4N)c(CO)n2)c1Cl
5.5 | COC1CCc2[nH]c3cc(Sc4cnc(N5CCC6(CC5)CO[C@@H](C)[C@H]6N)c(CO)n4)c(Cl)nc3c2C1 (stereo partly specified)
13 | C[C@@H]1OCC2(CCN(c3ncc(Sc4ccnc(N)c4Cl)nc3[S+](C)[O-])CC2)[C@@H]1N (stereo partly specified)
21 | C[C@@H]1OCC2(CCN(c3ncc(Sc4ccnc(F)c4Cl)nc3[S+](C)[O-])CC2)[C@@H]1N (stereo partly specified)
13 | C[C@@H]1OCC2(CCN(c3ncc(Sc4ccnc(N)c4Cl)nc3O)CC2)[C@@H]1N
3.5 | C[C@@H]1OCC2(CCN(c3ncc(Sc4cc5[nH]c6c(c5nc4Cl)CC(O)CC6)nc3CO)CC2)[C@@H]1N (stereo partly specified)
18 | COc1nccc(Sc2cnc(N3CCC4(CC3)CO[C@@H](C)[C@H]4N)c([S+](C)[O-])n2)c1Cl (stereo partly specified)
3 | C[C@@H]1OCC2(CCN(c3ncc(Sc4cc(N)nc(Cl)c4Cl)nc3[S+](C)[O-])CC2)[C@@H]1N (stereo partly specified)
13 | C[C@@H]1OCC2(CCN(c3ncc(Sc4ccnc(N5CCCC5)c4Cl)nc3[S+](C)[O-])CC2)[C@@H]1N (stereo partly specified)
269 | CN1C(=O)CCC12CC(N)C1(CCN(c3ncc(Sc4ccnc(N)c4Cl)nc3CO)CC1)C2 (stereo unspecified)
6 | C[C@@H]1OCC2(CCN(c3ncc(Sc4ccnc(Cl)c4Cl)nc3[S+](C)[O-])CC2)[C@@H]1N (stereo partly specified)
3 | Nc1nccc(Sc2cnc(N3CCC4(CC3)CCC3(CC3)C4N)c(CO)n2)c1Cl (stereo unspecified)
